Measurements published in the supplement of paper PMC10949913.

What was measured:
CU-ACC1 = test: area under concentration-response curve (viability) (AUC (a.u.)); higher = less active; conditions: 48 h
Outline: (§1)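 For each of three adrenocortical carcinoma cell lines, 500–1,000 cells/well were placed in 5 µL medium in 1,536-well plates. A 23 nL volume of every library compound was added at 11 concentrations. Following 48 h, a 15-minute room-temperature CellTiter-Glo step preceded luminescence reading, with signals normalised per plate to vehicle and empty-well controls. AC50 and area under the curve were derived by curve fitting, retaining only inhibitory or non-responding curve classes.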

NCI-H295R = test: as above; conditions: 48 h
Outline: as §1

Compound	area under concentration-response curve (CU-ACC1)	area under concentration-response curve (NCI-H295R)
COc1ccccc1C(=O)Nc1cc2c(cc1N1CCNC[C@H]1C)n(C)c(=O)n2C	479	550
CC1=CC=C(C=C1)N(C\C2=N\CCN2)C3=CC=CC(=C3)O	479	518
CC(C)c1ccccc1Cc1cc(C(=O)Nc2ccc([S+](=O)([O-])c3ccccc3C(C)(C)C)cc2)c(O)c(O)c1O	293	205
Cn1ncc(Cl)c1-c1cc(C(=O)N[C@H](CN)Cc2cccc(F)c2)sc1Cl	305	335
O=C(O)/C(S)=C/c1ccc(I)cc1	368	459
Cc1c(CCOc2ccc(C(=O)O)cc2)c2cc(Cl)ccc2n1C(c1ccccc1)c1ccccc1	536	600
C[C@@]1(c2ncncc2F)NC(=O)c2cc(-c3cn[nH]c3)ccc21	528	546
O=C(CCNC(=O)c1ccc(OC(F)(F)F)cc1)N[C@@H]1CCCc2ccccc21	149	81
c1ccc2c(Oc3nc(Nc4ccc(N5CCOCC5)cc4)c4ncn(C5CCCCC5)c4n3)cccc2c1	481	535
c1cnc2cc3c(cc2n1)C1CNCC3C1	536	563
COCCOC(=O)C/1=C(C)/NC/2=C(C1C3=CC=CC(=C3)O)/C(=O)CC(C2)C4=C(OC)C=CC=C4 (configuration not stated)	446	507
Cn1c(CCCC(=O)O)nc2cc(N(CCCl)CCCl)ccc21	475	540
c1cc(OCCN2CCCCC2)cc(-c2n[nH]c3ccc(-c4nc[nH]n4)cc23)c1	525	563
Cc1cc(Oc2ccc3nc(COc4ccc(CC5SC(=O)NC5=O)cc4)n(C)c3c2)cc(C)c1N (configuration not stated)	512	556
C[C@@H]1CC(=O)Nc2cccc(-c3cnn(C(C)(C)C)c3)c2N1	551	570
Cc1c[nH]c(-c2cnc(NCCNc3ccc(C#N)cn3)nc2-c2ccc(Cl)cc2Cl)n1	538	558
Cc1ccc(Nc2cc(N[C@@H]3CCCC[C@@H]3N)nnc2C(N)=O)nc1C	516	568
CC(=O)Oc1ccccc1C(=O)O	357	402
COc1nc(N)nc2c1ncn2C1OC(CO)C(O)C1O (configuration not stated)	461	469
CCOC(=O)Nc1ccc(NCc2ccc(F)cc2)cc1N	543	578

Compound	area under concentration-response curve (CU-ACC1)	area under concentration-response curve (NCI-H295R)
NC(=O)c1cnc2[nH]ccc2c1NC1C2CC3C[C@H]1CC(O)(C3)C2 (some centres not stated)	519	547
O=C(Nc1cnn2ccc(N3CCC[C@@H]3c3cc(F)ccc3F)nc12)N1CC[C@H](O)C1	534	554
Cc1ccccc1C(C(=O)NC1CCCCC1)N(C(=O)CNc1ccc(C#N)cc1)c1cccc(F)c1 (configuration not stated)	485	507
CCn1c(C(=O)N(C2CC2)C2CC2)cc2c3c(ncn3C)c(Nc3cc(C)n(C)n3)nc21	422	540
NC\1=N\C(=O)N(\C=C1F)[C@H]2C[C@H](O)[C@@H](CO)O2	334	416
Cn1cc(-c2cnn3c(N)c(Br)c(C4CCCNC4)nc23)cn1 (configuration not stated)	516	557
C[C@H]1C[C@H]2[C@@H]3CC[C@](O)(C(=O)CO)[C@@]3(C)C[C@H](O)[C@@H]2[C@@]\4(C)/C=C\C(=O)\C=C14	520	553
Nc1nc2cc(-c3ccc4ncc(C(=O)N5CCOCC5)n4c3)ccc2o1	514	478
O=[S+]([O-])(CCSSCC[S+](=O)([O-])[O][Na])[O][Na]	469	544
O=C(NOCCO)c1cc(CN2OCCCC2=O)c(F)c(F)c1Nc1ccc(I)cc1F	267	267
CN(C)CCN1C(=O)c2cccc3cc(NC(N)=O)cc(c23)C1=O	521	542
CC1=NN(c2ccc(C)c(C)c2)C(=O)/C1=N/Nc1cccc(-c2cccc(C(=O)O)c2)c1O	437	500
CC#CC(=O)N1CCC[C@H]1c1nc(-c2ccc(C(=O)Nc3ccccn3)cc2)c2c(N)nccn12	474	509
O=C(Nc1cccc(C(F)(F)F)c1)c1cccc2cc(Oc3cc(CO)ncn3)ccc12	516	579
COC/1=C(\CNC(=O)C2=C(C)[N]([C@H](C)C3CCOCC3)C4=CC=CC=C24)C(=O)NC(=C1)/C	357	429
COc1cccc(OC)c1-c1cc(C(=O)NC2(C(=O)O)C3CC4CC(C3)CC2C4)nn1-c1ccnc2cc(Cl)ccc12 (configuration not stated)	513	569
COC1=C(OC)C=C2C(=C1)C(=O)N(CCCN3CCOCC3)\C4=C2\C(=O)C5=C4C=C6OCOC6=C5	400	463
C[C@@H](Nc1ncnc2[nH]c(-c3ccc(O)cc3)cc12)c1ccccc1	300	328
CC(C)CC(N(C)C)C1(c2ccc(Cl)cc2)CCC1 (configuration not stated)	291	349
CC1(C)CN(C(=O)c2ccc(-c3cccc4nc(NC(=O)C5CC5)nn34)cc2)C1	345	381

Compound	area under concentration-response curve (CU-ACC1)	area under concentration-response curve (NCI-H295R)
CN1C(=O)C[C@H](C(=O)N[C@@H](Cc2cnc[nH]2)C(=O)N2CCC[C@H]2C(N)=O)NC1=O	537	589
CO[C@H]1CC[C@]2(CC1)CC3=C(C=C(C=C3)C4=CN=CC(=C4)C#CC)[C@@]2/5\N=C(C)/C(=N5)N	487	532
CO[C@@H](C(=O)N1Cc2[nH]nc(NC(=O)c3ccc(N4CCN(C)CC4)cc3)c2C1)c1ccccc1	539	549
COC1=C(OC)C=C2C(=C1)C(=O)N(CCC[N]3C=CN=C3)\C4=C2\C(=O)C5=CC6=C(OCO6)C=C45	468	517
CC(C)(S)[C@@H](N)C(=O)O	637	711
NC(=O)c1cc(F)cc2c1C(=O)N(C1CCN(C3CCC(F)(F)CC3)CC1)C2	541	568
CCN(C1CCOCC1)C2=C(C)C(=CC(=C2)C3=CC=C(CN4CCOCC4)C=C3)C(=O)NC\C5=C(C)\C=C(C)/NC5=O	262	249
CCOC(=O)O[C@@]1(CC[C@H]2[C@@H]3CCC/4=C/C(=O)/C=C\[C@]4(C)[C@H]3[C@@H](O)C[C@]12C)C(=O)OCCl	364	395
CN1CCN(CC1)C2=NC3=C(C=CC=C3)C(=N2)C/4=C(/C(=O)NC4=O)C5=C[NH]C6=C5C=CC=C6	498	523
O=C(O)C1(Cc2cccc(Nc3nccs3)n2)CCC(Oc2cccc(Cl)c2F)CC1 (configuration not stated)	511	510
COC1=CC=C2C(=CC=NC2=C1)OC3=CC=C(NC(=O)\C4=C(C)\N(CC(C)(C)O)N(C4=O)C5=CC=CC=C5)C=C3F	398	459
CC(=O)CC(C1=CC=CC=C1)C/2=C(O)/C3=CC=CC=C3OC2=O (configuration not stated)	491	533
CCC(C)(C)C(=O)O[C@H]1C[C@@H](C)\C=C2\C=C/[C@H](C)[C@H](CC[C@@H]3C[C@@H](O)CC(=O)O3)[C@@H]12	399	565
CCCC[S+](=N)([O-])CCC(N)C(=O)O (configuration not stated)	472	533
OC1=CC=C(C=C1)\C2=C\OC3=C(C=CC(=C3)O)C2=O		565
C=CCN1C[C@H](C(=O)N(CCCN(C)C)C(=O)NCC)CC2c3cccc4[nH]cc(c34)C[C@H]21 (some centres not stated)		545
CN(C)CCNC(=O)COc1c2cccc1Cc1cccc(c1OCC(=O)NCCN(C)C)Cc1cccc(c1OCC(=O)NCCN(C)C)Cc1cccc(c1OCC(=O)NCCN(C)C)C2		485
CCOC(=O)C(C#N)C\1C2=CC(=CC=C2O\C(=C1C(=O)OCC)N)Br (configuration not stated)		569
